Results from US11046673B1, “Tetrazolinone compounds and its use” (SUMITOMO CHEMICAL COMPANY, LIMITED, priority 2016, dated 2021).

Tested on: wheat rust fungi (Puccinia recondita)
Experiment: Test Example 13 / Comparative Test Example 1: wheat rust, foliar spray
Assay type: in vivo
Conditions: wheat (cv Shirogane), 12.5 ppm foliar spray, inoculated after 5 days
Description: A plastic pot was filled with soil and thereto wheat (cv; Shirogane) seeds were sown and the plants were grown in a greenhouse for 9 days. Any of the present compounds 1, 2, 3, 5, 6, 7, 8, 9, 10, 12, 13, 14, 15, 18, 19, 20, 21, 26, 27 and 28 each of which was made to a formulation according to the similar method to that of Formulation Example 6, was adjusted with water so as to be 12.5 ppm, and the adjusted solutions were sprayed to foliar parts so as to adhere adequately on the leaves of the above-mentioned wheat. After spraying the adjusted solutions, the plants were air-dried and were then cultivated at 20° C. under lighting for 5 days. The spores of wheat rust fungi (Puccinia recondita) were sprinkling-inoculated. After the inoculation, the plants were placed under a dark and humid condition at 23° C. for 1 day and were then cultivated at 20° C. under lighting for 8 days, and a lesion area was observed.
A plastic pot was filled with soils and thereto was seeded wheat (cv; Shirogane) and the plants were grown in a greenhouse for 9 days. 1-(2-{[2-methyl-4-(1-methyl-1H-pyrazol-3-yl)phenoxy]methyl}-3-methylphenyl)-4-m ethyl-4,5-dihydrotetrazole-5-one which was made to a formulation according to the similar method to that of Formulation Example 6 was adjusted with water so as to be 12.5 ppm. […]

Cc1cc(-c2ccn(C)n2)ccc1OCc1c(C)cccc1-n1nnn(C)c1=O [1-(2-{[2-methyl-4-(1-methyl-1H-pyrazol-3-yl)phenoxy]methyl}-3-methylphenyl)-4-m ethyl-4,5-dihydrotetrazole-5-one]
lesion area compared to the lesion area in untreated plants: ≥ 70%
